# Experimental data from patent US12018016B2, “Aryl sulfonyl (hydroxy) piperidines as CCR6 inhibitors” (CHEMOCENTRYX, INC., priority 2021, dated 2024).
# Target: T1, human CCR6 (Homo sapiens, UniProt P51684)
# T1 construct: expressed in transfected cells; host or cells: Ba/F3 cells (mouse pro-B line)
# T1 sequence (P51684 1-374): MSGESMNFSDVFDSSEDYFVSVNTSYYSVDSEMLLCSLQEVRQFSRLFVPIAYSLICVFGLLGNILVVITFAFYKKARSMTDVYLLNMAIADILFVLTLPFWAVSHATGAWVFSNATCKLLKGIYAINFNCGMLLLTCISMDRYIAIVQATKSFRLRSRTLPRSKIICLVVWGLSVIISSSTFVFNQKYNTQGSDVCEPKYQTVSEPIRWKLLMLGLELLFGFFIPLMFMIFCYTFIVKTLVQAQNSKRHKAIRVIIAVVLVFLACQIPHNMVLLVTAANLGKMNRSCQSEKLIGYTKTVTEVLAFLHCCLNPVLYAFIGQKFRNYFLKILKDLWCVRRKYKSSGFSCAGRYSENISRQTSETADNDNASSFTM
# Assay: Migration assay (chemotaxis, ChemoTX)
# Type: cell-based
# Settings: hCCR6-transfected Ba/F3 cells in human serum, migration to recombinant human CCL20 10 nM, 37° C. 45 minutes; read-out: Potency (IC50 value in the migration assay)
# Procedure, shortened: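 Ba/F3 cells transfected with human CCR6 and butyrate-primed for 24 h were suspended at 4 million/ml in human serum with compound, serially diluted from a 1 μM final top concentration. Cells migrated through a 5-μm polycarbonate membrane toward 10 nM human CCL20 for 45 min at 37 °C. Migrated cells were quantified by CyQUANT fluorescence.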
row,IC50 [nM],Compound
1,< 1,"O=C1NCc2cc(-c3ccc(S(=O)(=O)N4CC[C@@H](Nc5ccc(C(F)(F)F)cn5)[C@@H](O)C4)cc3)ccc2N1 [Example 14, 6-(4-(((3S,4R)-3-hydroxy-4-((5-(trifluoromethyl)pyridin-2-yl)amino)piperidin-1-yl)sulfonyl)phenyl)-3,4-dihydroquinazolin-2(1H)-one]"
2,< 1,"COc1cc(-c2ccc(S(=O)(=O)N3CC[C@@H](Nc4ccc(C(F)(F)F)cn4)[C@@H](O)C3)cc2)cc2c1NC(=O)C2 [Example 15, 5-(4-(((3S,4R)-3-hydroxy-4-((5-(trifluoromethyl)pyridin-2-yl)amino)piperidin-1-yl)sulfonyl)phenyl)-7-methoxyindolin-2-one]"
3,< 1,"Cc1cc(-c2ccc(S(=O)(=O)N3CC[C@@H](Nc4ccc(C(F)(F)F)cn4)[C@@H](O)C3)cc2)cc2cn[nH]c12 [Example 16, (3S,4R)-1-((4-(7-methyl-1H-indazol-5-yl)phenyl)sulfonyl)-4-((5-(trifluoromethyl)pyridin-2-yl)amino)piperidin-3-ol]"
4,1 to 10,"Cc1nc2[nH]ccc2cc1-c1ccc(S(=O)(=O)N2CC[C@@H](Nc3ccc(C(F)(F)F)cn3)[C@@H](O)C2)cc1 [Example 17, (3S,4R)-1-((4-(6-methyl-1H-pyrrolo[2,3-b]pyridin-5-yl)phenyl)sulfonyl)-4-((5-(trifluoromethyl)pyridin-2-yl)amino)piperidin-3-ol]"
5,1 to 10,"NC(=O)c1ccnc(-c2ccc(S(=O)(=O)N3CC[C@@H](Nc4ccc(C(F)(F)F)cn4)[C@@H](O)C3)cc2)c1 [Example 18, 2-(4-(((3S,4R)-3-Hydroxy-4-((5-(trifluoromethyl)pyridin-2-yl)amino)piperidin-1-yl)sulfonyl)phenyl)isonicotinamide]"
6,1 to 10,"NC(=O)c1ncc(-c2ccc(S(=O)(=O)N3CC[C@@H](Nc4ccc(C(F)(F)F)cn4)[C@@H](O)C3)cc2)cc1N [Example 19, 3-Amino-5-(4-(((3S,4R)-3-hydroxy-4-((5-(trifluoromethyl)pyridin-2-yl)amino)piperidin-1-yl)sulfonyl)phenyl)picolinamide]"
7,< 1,"Cc1cnc(C(N)=O)cc1-c1ccc(S(=O)(=O)N2CC[C@@H](Nc3ccc(C(F)(F)F)cn3)[C@@H](O)C2)cc1 [Example 20, 4-(4-(((3S,4R)-3-Hydroxy-4-((5-(trifluoromethyl)pyridin-2-yl)amino)piperidin-1-yl)sulfonyl)phenyl)-5-methylpicolinamide]"
8,< 1,"COc1cc(-c2ccc(S(=O)(=O)N3CC[C@@H](Nc4ccc(C(F)(F)F)cn4)[C@@H](O)C3)cc2)cc2cn[nH]c12 [Example 21, (3S,4R)-1-((4-(7-methoxy-1H-indazol-5-yl)phenyl)sulfonyl)-4-((5-(trifluoromethyl)pyridin-2-yl)amino)piperidin-3-ol]"
9,< 1,"O=S(=O)(c1ccc(-c2cnc3[nH]ccc3c2C(F)(F)F)cc1)N1CC[C@@H](Nc2ccc(C(F)(F)F)cn2)[C@@H](O)C1 [Example 22, (3S,4R)-1-((4-(4-(trifluoromethyl)-1H-pyrrolo[2,3-b]pyridin-5-yl)phenyl)sulfonyl)-4-((5-(trifluoromethyl)pyridin-2-yl)amino)piperidin-3-ol]"
10,< 1,"O=S(=O)(c1ccc(-c2ccc3[nH]ncc3c2)cc1)N1CC[C@@H](Nc2ccc(C(F)(F)F)cn2)[C@@H](O)C1 [Example 23, (3S,4R)-1-((4-(1H-indazol-5-yl)phenyl)sulfonyl)-4-((5-(trifluoromethyl)pyridin-2-yl)amino)piperidin-3-ol]"
11,1 to 10,"Cc1cc2[nH]ncc2cc1-c1ccc(S(=O)(=O)N2CC[C@@H](Nc3ccc(C(F)(F)F)cn3)[C@@H](O)C2)cc1 [Example 25, (3S,4R)-1-((4-(6-methyl-1H-indazol-5-yl)phenyl)sulfonyl)-4-((5-(trifluoromethyl)pyridin-2-yl)amino)piperidin-3-ol]"
12,< 1,"Cc1c(-c2ccc(S(=O)(=O)N3CC[C@@H](Nc4ccc(C(F)(F)F)cn4)[C@@H](O)C3)cc2)ccc2[nH]ncc12 [Example 26, (3S,4R)-1-((4-(4-methyl-1H-indazol-5-yl)phenyl)sulfonyl)-4-((5-(trifluoromethyl)pyridin-2-yl)amino)piperidin-3-ol]"
13,1 to 10,"NC(=O)c1cncc(-c2ccc(S(=O)(=O)N3CC[C@@H](Nc4ccc(C(F)(F)F)cn4)[C@@H](O)C3)cc2)c1 [Example 27, 5-(4-(((3S,4R)-3-Hydroxy-4-((5-(trifluoromethyl)pyridin-2-yl)amino)piperidin-1-yl)sulfonyl)phenyl)nicotinamide]"
14,< 1,"NC(=O)c1ccc(-c2ccc(S(=O)(=O)N3CC[C@@H](Nc4ccc(C(F)(F)F)cn4)[C@@H](O)C3)cc2)cn1 [Example 28, 5-(4-(((3S,4R)-3-Hydroxy-4-((5-(trifluoromethyl)pyridin-2-yl)amino)piperidin-1-yl)sulfonyl)phenyl)picolinamide]"
15,< 1,"CC(C)(C)OC(=O)NCCn1cc(C#N)c2cc(-c3ccc(S(=O)(=O)N4CC[C@@H](Nc5ccc(C(F)(F)F)cn5)[C@@H](O)C4)cc3)cnc21 [Example 29, tert-Butyl (2-(3-cyano-5-(4-(((3S,4R)-3-hydroxy-4-((5-(trifluoromethyl)pyridin-2-yl)amino)piperidin-1-yl)sulfonyl)phenyl)-1H-pyrrolo[2,3-b]pyridin-1-yl)ethyl)carbamate]"
16,< 1,"Nc1nc2ccc(-c3ccc(S(=O)(=O)N4CC[C@@H](Nc5ccc(C(F)(F)F)cn5)[C@@H](O)C4)cc3)cc2c(=O)[nH]1 [Example 30, 2-amino-6-(4-(((3S,4R)-3-hydroxy-4-((5-(trifluoromethyl)pyridin-2-yl)amino)piperidin-1-yl)sulfonyl)phenyl)quinazolin-4(3H)-one]"
17,< 1,"NC(=O)c1cc(-c2ccc(S(=O)(=O)N3CC[C@@H](Nc4ccc(C(F)(F)F)cn4)[C@@H](O)C3)cc2)ccn1 [Example 31, 4-(4-(((3S,4R)-3-hydroxy-4-((5-(trifluoromethyl)pyridin-2-yl)amino)piperidin-1-yl)sulfonyl)phenyl)picolinamide]"
18,1 to 10,"N#Cc1c[nH]c2ncc(-c3ccc(S(=O)(=O)N4CC[C@H](Nc5ccc(C(F)(F)F)cn5)[C@H](O)C4)cc3)cc12 [Example 32, 5-(4-(((3R,4S)-3-hydroxy-4-((5-(trifluoromethyl)pyridin-2-yl)amino)piperidin-1-yl)sulfonyl)phenyl)-1H-pyrrolo[2,3-b]pyridine-3-carbonitrile]"
19,< 1,"Cc1c(-c2ccc(S(=O)(=O)N3CC[C@@H](Nc4ccc(C#N)cn4)[C@@H](O)C3)cc2)cnc2[nH]ccc12 [Example 33, 6-[[(3S,4R)-3-hydroxy-1-[4-(4-methyl-1H-pyrrolo[2,3-b]pyridin-5-yl)phenyl]sulfonyl-4-piperidyl]amino]pyridine-3-carbonitrile]"
20,< 1,"N#Cc1ccc(N[C@@H]2CCN(S(=O)(=O)c3ccc(-c4cnc5[nH]cc(C#N)c5c4)cc3)C[C@@H]2O)nc1 [Example 34, 5-[4-[[(3S,4R)-4-[(5-cyano-2-pyridyl)amino]-3-hydroxy-1-piperidyl]sulfonyl]phenyl]-1H-pyrrolo[2,3-b]pyridine-3-carbonitrile]"
21,< 1,"Cc1c(-c2ccc(S(=O)(=O)N3CC[C@@H](Nc4ccc(C(F)(F)F)cn4)[C@@H](O)C3)cc2)ccc2[nH]nc(C#N)c12 [Example 35, 5-(4-(((3S,4R)-3-hydroxy-4-((5-(trifluoromethyl)pyridin-2-yl)amino)piperidin-1-yl)sulfonyl)phenyl)-4-methyl-1H-indazole-3-carbonitrile]"
22,< 1,"Cc1cc2[nH]nc(C#N)c2cc1-c1ccc(S(=O)(=O)N2CC[C@@H](Nc3ccc(C(F)(F)F)cn3)[C@@H](O)C2)cc1 [Example 36, 5-(4-(((3S,4R)-3-hydroxy-4-((5-(trifluoromethyl)pyridin-2-yl)amino)piperidin-1-yl)sulfonyl)phenyl)-6-methyl-1H-indazole-3-carbonitrile]"
23,< 1,"N#Cc1ccc(N[C@@H]2CCN(S(=O)(=O)c3ccc(-c4ccnc(C(N)=O)c4)cc3)C[C@@H]2O)nc1 [Example 37, 4-(4-(((3S,4R)-4-((5-cyanopyridin-2-yl)amino)-3-hydroxypiperidin-1-yl)sulfonyl)phenyl)picolinamide]"
24,< 1,"Nc1n[nH]c2ncc(-c3ccc(S(=O)(=O)N4CC[C@@H](Nc5ccc(C(F)(F)F)cn5)[C@@H](O)C4)cc3)cc12 [Example 38, (3S,4R)-1-((4-(3-amino-1H-pyrazolo[3,4-b]pyridin-5-yl)phenyl)sulfonyl)-4-((5-(trifluoromethyl)pyridin-2-yl)amino)piperidin-3-ol]"
25,< 1,"COC(=O)c1cc(-c2ccc(S(=O)(=O)N3CC[C@@H](Nc4ccc(C(F)(F)F)cn4)[C@@H](O)C3)cc2)ccn1 [Example 39, Methyl 4-(4-(((3S,4R)-3-hydroxy-4-((5-(trifluoromethyl)pyridin-2-yl)amino)piperidin-1-yl)sulfonyl)phenyl)picolinate]"
26,1 to 10,"CN(C)C(=O)c1cc(-c2ccc(S(=O)(=O)N3CC[C@@H](Nc4ccc(C(F)(F)F)cn4)[C@@H](O)C3)cc2)ccn1 [Example 40, 4-(4-(((3S,4R)-3-Hydroxy-4-((5-(trifluoromethyl)pyridin-2-yl)amino)piperidin-1-yl)sulfonyl)phenyl)-N,N-dimethylpicolinamide]"
27,< 1,O=C(NCCO)c1cc(-c2ccc(S(=O)(=O)N3CC[C@@H](Nc4ccc(C(F)(F)F)cn4)[C@@H](O)C3)cc2)ccn1 [Example 41]
